Key:
[1] = biological target: T1, human CYP1A2 (Homo sapiens, UniProt P05177)
T1 sequence (P05177 1-516): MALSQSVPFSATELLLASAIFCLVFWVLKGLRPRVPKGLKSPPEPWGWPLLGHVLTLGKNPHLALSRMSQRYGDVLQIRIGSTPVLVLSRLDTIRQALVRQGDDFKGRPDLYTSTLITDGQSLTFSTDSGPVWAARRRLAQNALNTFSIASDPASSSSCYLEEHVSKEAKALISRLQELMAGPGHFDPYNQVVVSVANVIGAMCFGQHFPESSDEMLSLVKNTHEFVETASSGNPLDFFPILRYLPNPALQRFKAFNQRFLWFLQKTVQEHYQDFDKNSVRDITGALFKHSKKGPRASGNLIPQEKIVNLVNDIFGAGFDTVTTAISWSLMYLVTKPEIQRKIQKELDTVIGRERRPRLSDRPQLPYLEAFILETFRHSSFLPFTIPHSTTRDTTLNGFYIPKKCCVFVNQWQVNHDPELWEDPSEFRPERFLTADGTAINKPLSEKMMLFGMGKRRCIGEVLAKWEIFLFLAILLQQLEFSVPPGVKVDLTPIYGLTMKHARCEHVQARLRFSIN

[2] = biological target: human CYP2C9 (Homo sapiens, UniProt P11712)
[3] = biological target: human CYP2C19 (Homo sapiens, UniProt P33261)
[4] = biological target: human CYP2D6 (Homo sapiens, UniProt P10635)
[5] = biological target: CYP3A4 (Homo sapiens, UniProt P08684)
Sequence of CYP3A4 (P08684 whole entry): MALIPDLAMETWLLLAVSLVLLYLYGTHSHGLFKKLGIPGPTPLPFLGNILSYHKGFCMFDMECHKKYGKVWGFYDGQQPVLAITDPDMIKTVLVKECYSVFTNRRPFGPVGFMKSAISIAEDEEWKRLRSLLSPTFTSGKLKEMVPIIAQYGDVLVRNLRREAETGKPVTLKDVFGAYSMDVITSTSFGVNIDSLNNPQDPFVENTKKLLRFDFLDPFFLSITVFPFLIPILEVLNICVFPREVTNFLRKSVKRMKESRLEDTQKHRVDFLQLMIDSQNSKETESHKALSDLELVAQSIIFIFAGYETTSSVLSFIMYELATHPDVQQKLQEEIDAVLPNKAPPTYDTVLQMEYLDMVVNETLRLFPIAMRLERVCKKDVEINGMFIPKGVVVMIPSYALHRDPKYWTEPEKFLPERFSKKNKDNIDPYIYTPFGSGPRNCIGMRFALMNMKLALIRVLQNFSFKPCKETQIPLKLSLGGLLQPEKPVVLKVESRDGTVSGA

Sequence of human CYP2D6 (P10635 whole entry): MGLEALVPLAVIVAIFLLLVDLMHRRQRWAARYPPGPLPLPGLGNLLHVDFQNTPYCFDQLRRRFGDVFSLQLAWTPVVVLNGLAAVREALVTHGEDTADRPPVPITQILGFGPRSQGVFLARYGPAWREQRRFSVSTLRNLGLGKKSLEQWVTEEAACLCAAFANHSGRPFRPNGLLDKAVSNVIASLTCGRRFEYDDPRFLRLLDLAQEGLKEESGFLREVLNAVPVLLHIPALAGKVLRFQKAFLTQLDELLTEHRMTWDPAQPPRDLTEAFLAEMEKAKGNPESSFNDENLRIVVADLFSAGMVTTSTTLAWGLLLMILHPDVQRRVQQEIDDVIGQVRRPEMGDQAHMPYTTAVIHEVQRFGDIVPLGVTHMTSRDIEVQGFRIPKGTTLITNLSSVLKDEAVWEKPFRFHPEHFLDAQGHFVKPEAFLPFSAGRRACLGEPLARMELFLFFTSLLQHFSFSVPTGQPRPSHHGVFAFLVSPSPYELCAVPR
Sequence of human CYP2C9 (P11712 whole entry): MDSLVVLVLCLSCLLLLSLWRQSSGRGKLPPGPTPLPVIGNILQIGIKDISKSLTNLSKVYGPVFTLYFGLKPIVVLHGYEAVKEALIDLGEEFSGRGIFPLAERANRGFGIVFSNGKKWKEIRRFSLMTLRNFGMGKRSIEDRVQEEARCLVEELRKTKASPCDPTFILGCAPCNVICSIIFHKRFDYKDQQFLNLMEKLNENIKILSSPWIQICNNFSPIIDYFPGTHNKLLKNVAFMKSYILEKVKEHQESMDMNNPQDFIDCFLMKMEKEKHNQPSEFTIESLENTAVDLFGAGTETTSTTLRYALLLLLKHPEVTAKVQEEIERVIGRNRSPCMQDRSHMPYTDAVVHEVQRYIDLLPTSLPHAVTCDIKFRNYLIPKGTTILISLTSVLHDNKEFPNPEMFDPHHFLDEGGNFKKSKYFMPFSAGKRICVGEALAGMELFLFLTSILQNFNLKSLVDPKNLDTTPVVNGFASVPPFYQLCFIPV
Sequence of human CYP2C19 (P33261 whole entry): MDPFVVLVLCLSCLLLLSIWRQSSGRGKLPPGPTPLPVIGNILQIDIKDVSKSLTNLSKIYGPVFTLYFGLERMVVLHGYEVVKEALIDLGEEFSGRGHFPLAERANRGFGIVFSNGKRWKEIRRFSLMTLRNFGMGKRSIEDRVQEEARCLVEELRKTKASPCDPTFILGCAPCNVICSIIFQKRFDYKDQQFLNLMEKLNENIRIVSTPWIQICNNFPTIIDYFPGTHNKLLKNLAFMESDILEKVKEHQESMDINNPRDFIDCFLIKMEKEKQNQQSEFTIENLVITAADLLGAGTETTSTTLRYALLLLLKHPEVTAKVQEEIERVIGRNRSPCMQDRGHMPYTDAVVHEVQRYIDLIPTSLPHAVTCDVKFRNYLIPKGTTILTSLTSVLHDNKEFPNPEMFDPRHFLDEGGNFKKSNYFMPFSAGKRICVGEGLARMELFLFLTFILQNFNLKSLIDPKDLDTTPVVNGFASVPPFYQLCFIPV

Row | Structure (SMILES) | CYP1A2 AC50 (half-maximal activity concentration) [1] | CYP2C9 AC50 (half-maximal activity concentration) [2] | CYP2C19 AC50 (half-maximal activity concentration) [3] | AC50 [4] | AC50 [5] | AC50 [1] | AC50 [2] | AC50 [3] | CYP2D6 AC50 (half-maximal activity concentration) [4] | CYP3A4 AC50 (half-maximal activity concentration) [5]
1 | CN1CCC(Nc2ncc3ncnc(Nc4ccc(F)c(Cl)c4)c3n2)CC1.Cl.Cl [Falnidamol dihydrochloride] | Inactive | Inactive | Inactive | 18.4 µM | 14.4 µM | – | – | – | – | –
2 | O=C(NCc1ncc(C(F)(F)F)cc1Cl)c1c(Cl)cccc1Cl [Fluopicolide] | – | – | – | 6.57 µM | 12.6 µM | 33 µM | 4.13 µM | 18.6 µM | – | –
3 | C/C=C1/C(=O)C[C@H]2[C@@H]3CCC4=CC(=O)CC[C@]4(C)[C@H]3CC[C@]12C [Guggulsterone E] | Inconclusive inhibitor | – | – | – | 1.82 µM | – | 19.6 µM | 4.67 µM | Inactive | –
4 | C/C=C1\C(=O)C[C@H]2[C@@H]3CCC4=CC(=O)CC[C@]4(C)[C@H]3CC[C@]12C [Guggulsterone Z] | Inactive | – | – | – | 3.8 µM | – | 24.8 µM | 6.83 µM | Inactive | –
5 | O=C(OCCCCCCOC(=O)c1ccccc1)c1ccccc1 [Hexane-1,6-diyl dibenzoate] | – | – | – | – | 24 µM | 3.43 µM | 10.6 µM | 83.2 µM | Inactive | –
6 | Cl.Nc1c2c(nc3c1CCC3)CCCC2.O [Ipidacrine hydrochloride hydrate] | Inconclusive inhibitor | Inactive | Inactive | 10.7 µM | 14.9 µM | – | – | – | – | –
7 | CC(C)COC(=O)C=Cc1ccccc1 [Isobutyl 3-phenylacrylate] | – | – | – | – | 22.8 µM | 17 µM | 44 µM | 80 µM | Inactive | –
8 | CCOC(=O)C1=NOC(c2ccccc2)(c2ccccc2)C1 [Isoxadifen-ethyl] | Inconclusive inhibitor | – | – | – | 34.3 µM | – | 8.36 µM | 21.6 µM | Inconclusive activator | –
9 | COCC(=O)N(c1c(C)cccc1C)[C@H](C)C(=O)OC [Metalaxyl-M] | – | Inactive | Inconclusive inhibitor | – | 47.7 µM | 47.7 µM | – | – | Inactive | –
10 | COC(=O)Cc1cccc2ccccc12 [Methyl 1-naphthaleneacetate] | – | – | – | – | 27.5 µM | 18.8 µM | 41.9 µM | 63.5 µM | Inactive | –
11 | CCS(=O)(=O)c1ccc(OC)c(C(=O)OC)c1 [Methyl 5-(ethylsulfonyl)-o-anisate] | Inactive | – | Inconclusive inhibitor | – | – | – | 24.6 µM | – | Inactive | Inactive
12 | COC(=O)c1cc(S(N)(=O)=O)ccc1OC [Methyl 5-sulfamoyl-o-anisate] | Inactive | – | Inactive | – | – | – | 30.9 µM | – | Inactive | Inactive
13 | CCCCCCC(O)CCCCCCCCCCC(=O)OC (stereo not shown) [Methyl 12-hydroxyoctadecanoate] | Inconclusive inhibitor | – | Inactive | – | 27.7 µM | – | 23.8 µM | – | Inactive | –
14 | CCCCCCCCCCCCCOP(=O)(O)O [Monotridecyl phosphate] | – | – | – | – | 89.4 µM | 65.1 µM | 56.7 µM | 45.5 µM | Inactive | –
15 | O=C1C=CC(=O)N1c1cccc(N2C(=O)C=CC2=O)c1 [N,N'-1,3-Phenylenedimaleimide] | – | – | – | 36.3 µM | 9.83 µM | 12.7 µM | 5.22 µM | 7.04 µM | – | –
16 | CN(C)CCc1c[nH]c2ccccc12.O=C(O)/C=C/C(=O)O [N,N-Dimethyltryptamine fumarate] | Inactive | Inactive | Inactive | 34.6 µM | 89.9 µM | – | – | – | – | –

Row | Structure (SMILES) | CYP1A2 AC50 (half-maximal activity concentration) [1] | CYP2C9 AC50 (half-maximal activity concentration) [2] | CYP2C19 AC50 (half-maximal activity concentration) [3] | AC50 [4] | AC50 [5] | AC50 [1] | AC50 [2] | AC50 [3] | CYP2D6 AC50 (half-maximal activity concentration) [4] | CYP3A4 AC50 (half-maximal activity concentration) [5]
17 | CCC(CC)Nc1ccc(C)c(C)c1 [N-(1-Ethylpropyl)-3,4-xylidine] | – | – | – | – | 1.45 µM | 11.6 µM | 33.6 µM | 10.7 µM | Inconclusive inhibitor | –
18 | CCNS(=O)(=O)c1ccc(C)cc1 [N-Ethyl-4-methylbenzenesulfonamide] | – | – | – | – | – | 41.1 µM | 32 µM | 25.9 µM | Inconclusive inhibitor | Inactive
19 | CC(C)N1C(=O)c2ccccc2C1=O [N-Isopropylphthalimide] | – | Inconclusive inhibitor | Inactive | – | 57.7 µM | 35.6 µM | – | – | Inactive | –
20 | O=C(O)C[C@H](NC(=O)OCc1ccccc1)C(=O)O [N-[(Benzyloxy)carbonyl]-L-aspartic acid] | Inactive | Inactive | Inactive | – | 35.5 µM | – | – | – | Inactive | –
21 | C[C@]12CC[C@H]3[C@@H](CCC4=CC(=O)CC[C@@H]43)[C@@H]1CC[C@@H]2OC(=O)CCC1CCCCC1 [Nandrolone cyclohexylpropionate] | – | – | Inconclusive inhibitor | – | 4.56 µM | 26.8 µM | 17.4 µM | – | Inactive | –
22 | CC(C)(COC(=O)c1ccccc1)COC(=O)c1ccccc1 [Neopentyl glycol dibenzoate] | – | – | – | – | 35.7 µM | 47.7 µM | 6.58 µM | 20.8 µM | Inactive | –
23 | Cc1cc(C)nc(O)n1.O=C(Nc1ccc([N+](=O)[O-])cc1)Nc1ccc([N+](=O)[O-])cc1 [Nicarbazin] | Inactive | Inactive | Inconclusive inhibitor | – | 7.42 µM | – | – | – | Inactive | –
24 | O=C(O)C(F)(F)C(F)(F)C(F)(F)C(F)(F)C(F)(F)F [PFHxA] | Inactive | – | Inactive | – | 58.1 µM | – | 17.5 µM | – | Inconclusive inhibitor | –
25 | N.O=C(O)C(F)(F)C(F)(F)C(F)(F)C(F)(F)C(F)(F)C(F)(F)C(F)(F)F [PFOA, ammonium salt] | Inactive | – | – | – | 76.8 µM | – | 1.78 µM | 60.8 µM | Inactive | –
26 | O=C(O)C(F)(F)C(F)(F)C(F)(F)C(F)(F)C(F)(F)C(F)(F)C(F)(F)F [PFOA] | Inactive | – | Inactive | – | 70.8 µM | – | 2.52 µM | – | Inactive | –
27 | CCOC(=O)c1ccc(N(C)C)cc1 [Parbenate] | – | – | – | – | 47.9 µM | 4.68 µM | 31.9 µM | 21.6 µM | Inactive | –
28 | O=C(OCCCCCOC(=O)c1ccccc1)c1ccccc1 [Pentane-1,5-diyl dibenzoate] | – | – | – | – | 26.9 µM | 8.29 µM | 10.5 µM | 48.1 µM | Inactive | –
29 | CN1C(=O)N(c2ccccc2Br)Cc2cnc(Nc3ccc4c(c3)OCC(CO)O4)nc21 (stereo not shown) [PharmaGSID_48519] | – | – | – | 56.6 µM | 1.4 µM | 30.7 µM | 12.2 µM | 5.72 µM | – | –
30 | CC(C)C(=O)OCCOc1ccccc1 [Phenoxyethyl isobutyrate] | – | – | – | – | 22.6 µM | 31.9 µM | 36 µM | 38.5 µM | Inactive | –
31 | CCC(=O)OCCOc1ccccc1 [Phenoxyethyl propionate] | – | Inconclusive | Inconclusive inhibitor | – | 47.1 µM | 55.5 µM | – | – | Inactive | –
32 | COC(=O)c1ccccc1C(=O)c1ccc(OCCN2CCCCC2)cc1.Cl [Pitofenone hydrochloride] | Inactive | Inactive | Inactive | 14.9 µM | 15.5 µM | – | – | – | – | –

Source: publication PMC12155096 (International Journal of Molecular Sciences, 2025)
